This is an account of results in PubChem BioAssay AID330 (DTP/NCI, 2004).

The assay relates to P388 leukemia ip, CD2F1 mice, survival T/C. Description: NCI In Vivo Anticancer Drug Screen. Data for tumor model P388 Leukemia (intraperitoneal) in CD2F1 (CDF1) mice. Conditions: endpoint: median survival time, higher = longer survival. The method in brief: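 Mice carrying the transplanted tumor received test compound or vehicle. Survival was recorded in each group, and the value is the treated-group measurement divided by that of the vehicle-treated control group.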

[1] abbreviates: dose: 50.0 mg/kg/injection, schedule: Q01DX009 (ip), vehicle: Klucel (hydroxypropylcellulose) (HPC).
Where [2] appears, read: dose: 100.0 mg/kg/injection, schedule: Q01DX009 (ip), vehicle: Klucel (hydroxypropylcellulose) (HPC).
Where [3] appears, read: dose: 6.25 mg/kg/injection, schedule: Q01DX009 (ip), vehicle: saline.
The mark [4] stands for this setting: dose: 12.5 mg/kg/injection, schedule: Q01DX009 (ip), vehicle: saline.
Setting [5] is: dose: 50.0 mg/kg/injection, schedule: Q01DX005 (ip), vehicle: saline with Tween-80.
[6] abbreviates: dose: 100.0 mg/kg/injection, schedule: Q01DX005 (ip), vehicle: saline with Tween-80.
Setting [7] is: dose: 200.0 mg/kg/injection, schedule: Q01DX005 (ip), vehicle: saline with Tween-80.
[8] abbreviates: dose: 50.0 mg/kg/injection, schedule: Q01DX009 (ip), vehicle: saline.
The mark [9] stands for this setting: dose: 60.0 mg/kg/injection, schedule: Q01DX005 (ip), vehicle: saline.
Where [10] appears, read: dose: 120.0 mg/kg/injection, schedule: Q01DX005 (ip), vehicle: saline.
The mark [11] stands for this setting: dose: 240.0 mg/kg/injection, schedule: Q01DX005 (ip), vehicle: saline.
Setting [12] is: dose: 50.0 mg/kg/injection, schedule: Q01DX005 (ip), vehicle: Klucel (hydroxypropylcellulose) (HPC).
The mark [13] stands for this setting: dose: 100.0 mg/kg/injection, schedule: Q01DX005 (ip), vehicle: Klucel (hydroxypropylcellulose) (HPC).
Setting [14] is: dose: 60.0 mg/kg/injection, schedule: Q01DX005 (ip), vehicle: saline with Tween-80.
[15] abbreviates: dose: 120.0 mg/kg/injection, schedule: Q01DX005 (ip), vehicle: saline with Tween-80.
The mark [16] stands for this setting: dose: 240.0 mg/kg/injection, schedule: Q01DX005 (ip), vehicle: saline with Tween-80.
Setting [17] is: dose: 100.0 mg/kg/injection, schedule: Q01DX009 (ip), vehicle: saline.

Values joined by “and” are separate entries in the source; they are usually repeats but may differ in a detail not shown here. Equal values may be shown once. Toxic doses and inconclusive results are not listed.

Take `Cc1nc2ccccc2c(=O)o1`: the T/C runs as follows: under setting [1], 97 % of control; under setting [2], 98 % of control; (dose: 100.0 mg/kg/injection, schedule: Q04DX002 (ip), vehicle: Klucel (hydroxypropylcellulose) (HPC)) 105 % of control; (dose: 200.0 mg/kg/injection, schedule: Q01DX009 (ip), vehicle: Klucel (hydroxypropylcellulose) (HPC)) 90 % of control; (dose: 200.0 mg/kg/injection, schedule: Q04DX002 (ip), vehicle: Klucel (hydroxypropylcellulose) (HPC)) 107 % of control; (dose: 400.0 mg/kg/injection, schedule: Q04DX002 (ip), vehicle: Klucel (hydroxypropylcellulose) (HPC)) 100 % of control.

As to `Nc1ncc(C2CO2)c(-c2ccccc2)n1` (stereo unspecified), the T/C by setting is: (dose: 25.0 mg/kg/injection, schedule: Q01DX009 (ip), vehicle: Klucel (hydroxypropylcellulose) (HPC)) 94 % of control; under setting [1], 103 % of control; under setting [2], 108 % of control.

Take `ClCCN(CCCl)c1ccc(CN2CCCCCC2)cc1`: the T/C by setting is: under setting [3], 111 % of control; under setting [4], 114 % of control; (dose: 25.0 mg/kg/injection, schedule: Q01DX009 (ip), vehicle: saline) 116 % of control.

Regarding `CC(C)CC(NC(=O)C(Cc1cnc[nH]1)N(C(=O)OCc1ccccc1)C(=O)OCc1ccccc1)C(=O)NN` (stereo unspecified), the T/C runs as follows: under setting [5], 101 % of control; under setting [6], 106 % of control; under setting [7], 106 % of control.

For `Cc1nn(-c2ccc(S(=O)(=O)[O-])cc2)c([O-])c1N=[N+](C)c1ccc(-c2ccc(N=Nc3ccc4c(S(=O)(=O)[O-])cc(S(=O)(=O)[O-])c(N)c4c3[O-])c([O-])c2)cc1[O-].[Cu+2].[Cu+2].[Na+]`, the T/C (dose: 3.12 mg/kg/injection, schedule: Q01DX009 (ip), vehicle: saline with Tween-80) was 96 % of control; the T/C (dose: 6.25 mg/kg/injection, schedule: Q01DX009 (ip), vehicle: saline with Tween-80) was 96 % of control; the T/C (dose: 12.5 mg/kg/injection, schedule: Q01DX009 (ip), vehicle: saline with Tween-80) was 99 % of control and 86 % of control; the T/C under setting [4] was 97 % of control; the T/C under setting [8] was 96 % of control.

As to `CONC(C)=O`, the T/C is, setting by setting: under setting [9], 98 % of control; under setting [10], 100 % of control; under setting [11], 100 % of control.

For the compound `Cn1cnc([N+](=O)[O-])c1Sc1n[nH]c(N)n1`, the T/C reads like this: under setting [12], 111 % of control; under setting [13], 117 % of control; (dose: 200.0 mg/kg/injection, schedule: Q01DX005 (ip), vehicle: Klucel (hydroxypropylcellulose) (HPC)) 108 % of control.

With `[CH3][Sn]([CH3])([CH3])[N]=C=[N][Sn]([CH3])([CH3])[CH3]`, the T/C was 100 % of control (dose: 0.4 mg/kg/injection, schedule: Q01DX005 (ip), vehicle: saline) and 101 % of control (dose: 0.8 mg/kg/injection, schedule: Q01DX005 (ip), vehicle: saline).

Regarding `CCOC(=O)C1=C(SC)SC(C(=O)OCC)C2C=C(C)C=CN12` (stereo unspecified), the T/C by setting is: (dose: 15.0 mg/kg/injection, schedule: Q01DX005 (ip), vehicle: Klucel + Tween-80) 97 % of control; (dose: 30.0 mg/kg/injection, schedule: Q01DX005 (ip), vehicle: Klucel + Tween-80) 108 % of control; (dose: 60.0 mg/kg/injection, schedule: Q01DX005 (ip), vehicle: Klucel + Tween-80) 104 % of control and 96 % of control.

In the case of `CCOC(=O)C(C(=O)OCC)(C(=O)C(F)(F)C(F)(F)C(F)(F)C(F)(F)C(=O)C(C(=O)OCC)(C(=O)OCC)c1ccccc1)c1ccccc1`, the T/C is 93 % of control under setting [14], 98 % of control under setting [15] and 89 % of control under setting [16].

Turning to `CC(=O)/C(=C\c1ccccc1Cl)C(=O)CCN(C)C`, the T/C runs as follows: (dose: 40.0 mg/kg/injection, schedule: Q01DX005 (ip), vehicle: saline) 115 % of control; under setting [9], 107 % of control and 112 % of control; under setting [10], 121 % of control; under setting [11], 122 % of control.

Turning to `Nc1nnnn1-n1cccc1`, the T/C runs as follows: under setting [5], 103 % of control; under setting [6], 103 % of control; under setting [7], 103 % of control.

Take `N#CC(C(=O)CCc1nc2ccccc2[nH]1)c1ccccc1Cl` (stereo unspecified): the T/C under setting [14] was 111 % of control, the T/C under setting [15] was 105 % of control and the T/C under setting [16] was 96 % of control.

Turning to `Cc1ccc(S(=O)(=O)OCCOc2ccc3ccccc3c2-c2c(OCCOc3ccc4ccccc4c3-c3c(OCCOS(=O)(=O)c4ccc(C)cc4)ccc4ccccc34)ccc3ccccc23)cc1`, the T/C is, setting by setting: (dose: 100.0 mg/kg/injection, schedule: Q01DX001 (ip), vehicle: saline with Tween-80) 101 % of control; (dose: 200.0 mg/kg/injection, schedule: Q01DX001 (ip), vehicle: saline with Tween-80) 97 % of control; (dose: 400.0 mg/kg/injection, schedule: Q01DX001 (ip), vehicle: saline with Tween-80) 97 % of control.

With `O=C(CC(O)c1cccnc1)CC(O)c1cccnc1` (stereo unspecified), the T/C was 100 % of control under setting [9], 114 % of control under setting [10] and 114 % of control under setting [11].

For the compound `NC(Cc1ccc(O)cc1)C(=O)N/N=C/c1ccccc1Cl` (stereo unspecified), the T/C by setting is: under setting [12], 100 % of control; under setting [13], 106 % of control.

Regarding `CN1C(=O)N(C)P123OP1(N(C)C(=O)N1C)(N(C)C(=O)N2C)N(C)C(=O)N3C`, the T/C under setting [9] is 103 % of control, the T/C under setting [10] was 97 % of control and the T/C under setting [11] was 89 % of control.

As for `O=P(N1CCCC1)(N1CC1)N1CC1`, the T/C under setting [3] was 109 % of control; the T/C (dose: 8.3 mg/kg/injection, schedule: Q04DX003 (ip), vehicle: saline) is 172 % of control; the T/C under setting [4] is 90 % of control; the T/C (dose: 12.5 mg/kg/injection, schedule: Q04DX003 (ip), vehicle: saline) was 209 % of control; the T/C (dose: 18.7 mg/kg/injection, schedule: Q04DX003 (ip), vehicle: saline) was 236 % of control.

For `Cc1cc(N/N=C/c2cccc3ccccc23)c2cc3c(cc2n1)OCO3`, the T/C was 95 % of control (dose: 6.25 mg/kg/injection, schedule: Q01DX005 (ip), vehicle: Klucel (hydroxypropylcellulose) (HPC)); 100 % of control (dose: 12.5 mg/kg/injection, schedule: Q01DX005 (ip), vehicle: Klucel (hydroxypropylcellulose) (HPC)); 112 % of control (dose: 25.0 mg/kg/injection, schedule: Q01DX005 (ip), vehicle: Klucel (hydroxypropylcellulose) (HPC)).

Take `NC1=NN(Cc2nnc(-c3ccccc3)s2)C(=O)C1`: the T/C was 93 % of control under setting [14], 101 % of control under setting [15] and 111 % of control under setting [16].

On to `Cc1n[nH]c(=O)n2c1nc1ccccc12`, for which the T/C was 95 % of control (dose: 60.0 mg/kg/injection, schedule: Q01DX005 (ip), vehicle: Klucel (hydroxypropylcellulose) (HPC)); 95 % of control (dose: 120.0 mg/kg/injection, schedule: Q01DX005 (ip), vehicle: Klucel (hydroxypropylcellulose) (HPC)); 92 % of control (dose: 240.0 mg/kg/injection, schedule: Q01DX005 (ip), vehicle: Klucel (hydroxypropylcellulose) (HPC)).

For `CCC(/C=C/c1ccccc1)=N\Nc1ccc(Cl)c(Cl)c1`, the T/C reads like this: under setting [5], 104 % of control; under setting [6], 96 % of control; under setting [7], 91 % of control.

In the case of `COc1ccc(-c2cc3cc(CCCOC4OC(COC5OCC(O)C(O)C5O)C(O)C(O)C4O)cc(OC)c3o2)cc1OC` (stereo unspecified), the T/C reads like this: (dose: 18.75 mg/kg/injection, schedule: Q01DX005 (ip), vehicle: Klucel (hydroxypropylcellulose) (HPC)) 96 % of control; (dose: 37.5 mg/kg/injection, schedule: Q01DX005 (ip), vehicle: Klucel (hydroxypropylcellulose) (HPC)) 88 % of control.

`COCN(CCc1ccccc1)CCN(C)C`: the T/C reads like this: under setting [8], 113 % of control; under setting [17], 109 % of control.

In the case of `CCCCCCC[CH2][Sn]([CH2]CCCCCCC)([CH2]CCCCCCC)[O]C(C)=O`, the T/C reads like this: under setting [8], 97 % of control; under setting [17], 100 % of control; (dose: 200.0 mg/kg/injection, schedule: Q01DX009 (ip), vehicle: saline) 94 % of control.

As for `CN(C)Cc1cc(CN(C)C)c(O)c(CN(C)C)c1`, the T/C (dose: 50.0 mg/kg/injection, schedule: Q01DX009 (ip), vehicle: saline with Tween-80) is 88 % of control and the T/C (dose: 100.0 mg/kg/injection, schedule: Q01DX009 (ip), vehicle: saline with Tween-80) is 93 % of control.
